The text below walks through data of patent US20080248134A1, “Oral compositions, use and combinations of N-[2-(dimethylamino)ethyl]-2,6 dimethyl-1-oxo-1,2-dihydrobenzo[b]-1,6-naphthyridine-4-carboxamide and closely related analogues thereof” (Auckland Uniservices Limited, priority 2005, published 2008).

One data set deals with HCT116p53+. In words: In vitro cell proliferation assay, continuous drug exposure. In kind it is cell-based. The following applies: Homo sapiens, continuous drug exposure 3-5 days. The text has this: (§1) The results with the JLA and JLD lines, which have reduced topoisomerase II content as compared to the parental Jurkat line, indicate that the IC50 value of the compound is increased with decreased topoisomerase content. This is also the case for etoposide, amsacrine, DACA and doxorubicin.

Another data set concerns HCT116p53−. The description is as above. In kind it is cell-based. The following applies: Homo sapiens, continuous drug exposure 3-5 days.
Description: as §1

The subject of the next data set is JLA. Described as above. In kind it is cell-based. To be noted: Homo sapiens; JLA (reduced topoisomerase II), continuous drug exposure 3-5 days.
Description: as §1

Another data set has as its system JLD. Described as above. To be noted: Homo sapiens; JLD (reduced topoisomerase II), continuous drug exposure 3-5 days. In kind it is cell-based.
Description: as §1

For the next data set, the system named is Jurkat. The description is as above. In kind it is cell-based. To be noted: Homo sapiens, continuous drug exposure 3-5 days.
Description: as §1

For a further data set, the system named is AuxB1. Kind of data set: In vitro susceptibility to multidrug resistance, continuous exposure IC50. In kind it is cell-based, Chinese Hamster. To be noted: Cricetulus griseus, AuxB1 (no multidrug resistance). The protocol:
(§2) Multidrug resistance mediated by p-glycoprotein and related transport proteins is an important means by which cancer cells evade cytotoxic drugs. […] IC50 values of several drugs were measured in continuous exposure assays in these two cell lines. The resistance factor was calculated as the ratio of these values. High values indicate high susceptibility to resistance.

The subject of the next data set is CHrC5. The description is as above. In kind it is cell-based, Chinese Hamster. To be noted: for IC50: Cricetulus griseus, CHrC5 (multidrug resistant), continuous exposure; for Resistance factor: ratio of IC50 values in CHrC5 and AuxB1. On the procedure: as §2
The conditions of data set [1]: data taken from the literature; cited from earlier work.
Data set [2] has as its system p53, p21 and Fas in HCT116 (TP53 wild type). In words: Induction of the p53 pathway, western blotting. In kind it is cell-based, human. An excerpt:
The p53 protein is thought to play a major role in the induction of apoptosis in tumour cells (Levine A J. p53, the cellular gatekeeper for growth and division. Cell. 1997. 88(3):323-331). The p53 protein is a transcriptional activator, which acts in response to DNA damage and other stress pathways, and increases expression of proteins such as Fas and p21^WAF1. […] Products were detected by western blotting.
(In western blotting, separated proteins are transferred to a membrane and probed.)

The subject of data set [3] is survivin in HCT116 (TP53 wild type). Kind of data set: Inhibition of survivin production, western blotting. In kind it is cell-based, human. The following applies: various concentrations, 24 hours. The protocol: Survivin is a protein that is expressed selectively in many types of cancer cells and which is known to be associated with resistance to apoptosis (Zaffaroni N and Daidone M G. Survivin expression and resistance to anticancer treatments: perspectives for new therapeutic interventions. Drug Resistance Updates: Reviews and Commentaries in Antimicrobial and Anticancer Chemotherapy. 2002 5(2):65-72). […] Extracts were prepared, proteins were separated by electrophoresis and survivin expression was determined by western blotting.

The test system of a further data set is Jurkat LA. In words: Human tumour xenograft. In kind it is in vivo. To be noted: Leukaemia, comparison drug. The protocol:
(§3) The compound of Formula II was evaluated in a number of xenografts using cell lines derived from cervical, endometrial, lung and colon carcinomas, leukaemia and melanoma (Table 3). These studies indicate that the compound according to the present invention has significant activity in xenografts.
A general note: In xenograft studies the graft and the host belong to different species.

Another data set relates to NZEN1. In words: Human tumour xenograft. In kind it is in vivo. The following applies: NZEN1, Endometrium; comparison drug. The protocol: as §3
Another data set has as its system NZC1. In words: Human tumour xenograft. In kind it is in vivo. The following applies: NZC1, Cervix; comparison drug. The protocol:
as §3

The next data set has as its system NZM10. Kind of data set: Human tumour xenograft. In kind it is in vivo. To be noted: NZM10, Melanoma; comparison drug. On the procedure: as §3
The test system of the next data set is NZM3. In words: Human tumour xenograft. In kind it is in vivo. The following applies: NZM3, Melanoma; comparison drug. On the procedure:
as §3

Another data set has as its system NZM4. Kind of data set: Human tumour xenograft. To be noted: NZM4, Melanoma; comparison drug. In kind it is in vivo. On the procedure:
as §3

A further data set has as its system NZMp2. In words: Human tumour xenograft. In kind it is in vivo. To be noted: NZMp2, Melanoma; comparison drug. On the procedure:
as §3

Usually IC50 stands for the concentration that inhibits the measured activity by half. In the case of `COc1cc(NS(C)(=O)=O)ccc1Nc1c2ccccc2nc2ccccc12` [Amsacrine], the half-maximal inhibitory concentration (IC50) amounted to 25 nM in the data set with HCT116p53+; 52 nM in the data set with HCT116p53−; 3100 nM in the data set on JLA; 2700 nM in the data set on JLD; 37 nM in the data set on Jurkat; 19 nM in the data set with AuxB1. In the data set with CHrC5, this molecule yielded an IC50 of 110 nM. Besides, the Resistance factor in the data set with CHrC5 is 5.6. The “accumulation in tumour tissue versus liver tissue and plasma” value in data set [1] is listed as “accumulate more in the liver tissue than tumour tissue”.

Turning to `CN(C)CCNC(=O)c1cccc2cc3ccccc3nc12.Cl.Cl` [DACA, N-[2-(dimethylamino)ethyl]acridine-4-carboxamide dihydrochloride], the IC50 turned out to be 360 nM with HCT116p53+; 510 nM with HCT116p53−; 1100 nM in the data set with JLA; 2500 nM in the data set with JLD; 580 nM in the data set with Jurkat; 125 nM in the data set with AuxB1. Also, inhibition with CHrC5 was half-maximal at 216 nM (IC50). Besides, the Resistance factor with CHrC5 came out at 1.6. Further, in [1], the “accumulation in tumour tissue versus liver tissue and plasma” value was “relatively evenly spread throughout each tissue and plasma”.

Turning to `COc1cccc2c1C(=O)c1c(O)c3c(c(O)c1C2=O)C[C@@](O)(C(=O)CO)C[C@@H]3O[C@H]1C[C@H](N)[C@H](O)[C@H](C)O1` [Doxorubicin], the concentration for half-maximal inhibition (IC50) turned out to be 10.5 nM in the data set with HCT116p53+; 21 nM in the data set on HCT116p53−; 42 nM in the data set on JLA; 270 nM in the data set on JLD; 9.6 nM in the data set with Jurkat; 53 nM in the data set on AuxB1. The molecule also registered a half-inhibitory concentration (IC50) in the data set with CHrC5 of 6100 nM. Also, in the data set with CHrC5, the Resistance factor came to 114. Also, the “induction of p53, p21 and Fas” value in [2] (24 hours at higher cell density (approaching confluence)) was “did not”; in [2] (24 hours exposure), “induced p53, p21 and Fas in dose-dependent fashions”; in [2] (earlier times (4-10 hours)), “did not”. For the same molecule, the survivin expression result in data set [3] is listed as “only small effects”. The Comparison result with Jurkat LA and in the data set with NZEN1 was “inactive” each time.

As to `COc1cc([C@@H]2c3cc4c(cc3[C@@H](O[C@@H]3O[C@@H]5CO[C@@H](C)O[C@H]5[C@H](O)[C@H]3O)[C@H]3COC(=O)[C@H]23)OCO4)cc(OC)c1O` [Etoposide], the half-maximal inhibitory concentration (IC50) in the data set with HCT116p53+ was determined as 210 nM; in the data set on HCT116p53−, 390 nM; with JLA it was 2080 nM; in the data set on JLD it was 14400 nM; with Jurkat, 160 nM; in the data set with AuxB1, 1190 nM. The same molecule yielded a half-maximal inhibitory concentration (IC50) with CHrC5 of 8600 nM. Further, the Resistance factor in the data set with CHrC5 is recorded as 7.2. In addition, the survivin expression result in data set [3] is “only small effects”. For the same molecule, the Comparison entry in the data set with NZC1, in the data set on NZM10, with NZM3, in the data set on NZM4 and with NZMp2 was “active” each time.

For `CNC(=O)c1cccc2c(Nc3ccc(NS(C)(=O)=O)cc3OC)c3cccc(C)c3nc12` [asulacrine, 9-((2-methoxy-4-[(methylsulfonyl)-amino]phenyl)amino)-N,5-dimethyl-4-acridinecarboxamide], in [1], the “accumulation in tumour tissue versus liver tissue and plasma” value was “accumulate more in the liver tissue than tumour tissue”.
